30 molecules from PubChem BioAssay AID1625 (Sanford-Burnham Center for Chemical Genomics, 2009) can be followed below.

Molecules are shown by their SMILES. The source made the active and inactive calls.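 How the source made its calls: active means z-score above 3 at 5 µM with at least 500 cells counted in the well; inconclusive means wells under 500 cells, flagged as cytotoxic or low count; inactive means the rest.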

The test system of this assay is MIN6 insulin promoter-GFP reporter, high-content imaging. The experiment in a line: up-regulation of insulin promoter-GFP reporter – imaging, high-content screening, mouse beta cells (AID 1625).
Usually EC50 stands for the concentration giving half of the maximal effect. For the molecule `CC(=O)n1c(C=Nc2ccccc2)c(O)c2ccccc21`, the EC50 is 10.1 µM (inactive). On to `Cn1c(=O)c(NC2CCCCC2)c2c3c(cccc31)C(=O)c1ccccc1-2`, for which the half-maximal effective concentration (EC50) was 2.67 µM.

For the molecule `Cc1noc(/C=C/c2ccc(-c3ccccc3Cl)o2)c1[N+](=O)[O-]`, the half-maximal effective concentration (EC50) was 5.6 µM. For `COc1ccc(CN=Cc2[nH]c3ccc(Br)c(Cl)c3c2O)cc1`, the EC50 was > 16 µM (inactive). On to `CCCCN(C)C1=CC2=CC(=C(C#N)C#N)CCC2CC1` (stereo not given), for which the concentration for a half-maximal effect (EC50) is < 0.25 µM.

With `CN1C(=O)C(=Cc2ccc(N3CCCCC3)o2)C(=O)N(C)C1=S`, the EC50 was > 16 µM (inactive).

As for `COc1cc(N2CCCC2)c(OC)cc1/C=C(/C#N)c1cccc(F)c1`, the EC50 is > 16 µM (inactive). For `O=c1oc2cc(O)ccc2cc1-c1nc2c(s1)CCc1ccccc1-2` the value was 10.2 µM (inactive). For the molecule `Cc1ccc(N2C(=O)C3C(C(=O)c4ccccc4)=NN(c4ccccc4)C3C2=O)cc1` (stereo not given), the EC50 was 12.6 µM (inactive). For `O=C1S/C(=C\c2ccc(N3CCOCC3)o2)C(=O)N1c1ccccc1` the value was 12.5 µM (inactive). The figure for `CC(C)N1CC=C2C(C#N)=C(N)C(C#N)(C#N)[C@H](c3ccoc3)[C@H]2C1` is 8.51 µM; for `Cc1c(-c2ccc(O)cc2)nc2nc(-c3ccccc3)c(-c3ccccc3)nn12` it is 5.31 µM. `CN(C)c1ccc(/C=C/C(=O)c2c(O)c3ccccc3oc2=O)cc1`: the half-maximal effective concentration (EC50) was 0.726 µM. As to `COc1cc([C@@H]2[C@H]3CN(C)CC=C3C(C#N)=C(N)C2(C#N)C#N)cc2c1OCO2`, the concentration giving a half-maximal response (EC50) was 8.67 µM. For `CN1CC=C2C(C#N)=C(N)C(C#N)(C#N)[C@H](c3ccoc3)[C@H]2C1` the value was 11.2 µM (inactive); for `O=C1S/C(=C\c2ccc(N3CCOCC3)o2)C(=O)N1Cc1c(F)cccc1Cl`, 0.976 µM. As for `CCCC1C2CN(C(C)C)CC=C2C(C#N)=C(N)C1(C#N)C#N` (stereo not given), the EC50 was 5.53 µM. Consider `Cc1[nH]c2ccccc2c1/C=N/Nc1ccc([N+](=O)[O-])cc1`, for which the EC50 was 9.3 µM. For `COc1ccccc1N/C=C/c1onc(C)c1[N+](=O)[O-]` the value was 2.22 µM; for `CCCN1C(=O)/C(=C/c2c(NCCCOC(C)C)nc3c(C)cccn3c2=O)SC1=S`, > 16 µM (inactive). As for `Nc1ccc2c(c1)Cc1cc([N+](=O)[O-])ccc1-2`, the EC50 is 9.53 µM. As to `N#C/C(=C/c1ccc(N2CCOCC2)o1)c1ccc(Br)cc1`, the EC50 is 12.8 µM (inactive).

Regarding `Cc1[nH]c2ccccc2c1/C=N/Nc1ccc([N+](=O)[O-])cc1S(=O)(=O)Nc1ccc(Cl)cc1`, the EC50 is > 16 µM (inactive). Regarding `CCCOc1cc(N(CC)CC)ccc1/C=C(/C#N)c1nc2ccc(C)cc2[nH]1`, the EC50 was 9.89 µM. Regarding `Cc1nonc1NC(=O)CSc1nc2c(C)cccc2cc1C#N`, the EC50 was > 16 µM (inactive).

Take `COCCN1C(=O)/C(=C/c2ccc(N3CCCC3)cc2)SC1=S`: the EC50 was 12 µM (inactive).

For the molecule `COc1cc2c3nnc(-c4ccc(F)cc4)c-3cn(Cc3ccc(F)cc3)c2cc1OC`, the concentration for a half-maximal effect (EC50) is 5.41 µM. For the molecule `Nc1c(C(=O)C2CC2)sc2nc(-c3ccccc3)cc(C(F)(F)F)c12`, the concentration giving a half-maximal response (EC50) was 8.81 µM. Consider `CC(C)(C)c1ccc(OCC(=O)Nc2ccc3c4c(cccc24)C(=O)NC3=O)cc1`, for which the EC50 was > 16 µM (inactive). On to `CCN1CCc2c(sc(NC(=O)Nc3ccc(Cl)c(Cl)c3)c2C(N)=O)C1`, for which the EC50 is 1.4 µM.
